# Values of other authors as cited in US6329550A, “Amidomalonamides useful as inhibitors of MMP of matrix metalloproteinase” (Aventis Pharmaceuticals Inc., priority 1999, dated 2001).
# Tested on: B16-BL6 murine melanoma
# Details: intraperitoneal administration; lung colonies produced by intravenous injection of B16-BL6 murine melanoma in C57BL/6N mice
compound,measurement,value
CNC(=O)[C@H](Cc1ccccc1)NC(=O)[C@H](CC(C)C)[C@H](CSc1cccs1)C(=O)NO [batimastat],growth and metastatic spread and number of lung colonies,significant inhibition
